Test results: PMC7335108, “Butyrate producing colonic Clostridiales metabolise human milk oligosaccharides and cross feed on mucin via conserved pathways” (Nature Communications, 2020)
Values joined by “and” are separate entries in the source; they are usually repeats but may differ in a detail not shown here. Identical values can stand only once. Each block holds one molecule with its values, some of them ahead of it.

What was measured:
[1] = target: T1, RhLNBBP (Roseburia hominis, UniProt G2T0U7); parameters: isothermal titration calorimetry, single-site binding model; settings: binder; read-out: KD (μM) ITC
T1 construct: gene RHOM_04095; signal peptide removed, cleavable His6 tag, pETM11, expressed in E. coli
T1 sequence (G2T0U7 21-454): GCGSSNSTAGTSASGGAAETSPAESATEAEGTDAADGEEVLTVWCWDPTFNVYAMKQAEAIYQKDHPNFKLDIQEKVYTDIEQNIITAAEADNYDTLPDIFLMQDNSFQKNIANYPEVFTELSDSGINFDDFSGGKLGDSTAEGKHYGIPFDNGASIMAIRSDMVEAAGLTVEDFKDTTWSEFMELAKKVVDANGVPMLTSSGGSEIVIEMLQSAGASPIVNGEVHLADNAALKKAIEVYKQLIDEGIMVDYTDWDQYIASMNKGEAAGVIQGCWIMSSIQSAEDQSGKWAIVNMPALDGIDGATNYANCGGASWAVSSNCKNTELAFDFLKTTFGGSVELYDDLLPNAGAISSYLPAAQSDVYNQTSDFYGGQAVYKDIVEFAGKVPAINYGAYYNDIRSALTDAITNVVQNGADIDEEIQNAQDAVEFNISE
Protocol: Binding of LNT, LNB, GNB, LNnT, lactose and 2′FL to RhLNBBP was measured using a Microcal ITC200 calorimeter (GE Healthcare). Titrations were performed in duplicates at 25 °C with RhLNBBP (0.1 mM) in the sample cell and 1.5 mM ligand in 10 mM sodium phosphate buffer, pH 6.5 in the syringe. A first injection of 0.4 µL was followed by 19 injections of 2 µL ligand each, separated by 180 s. Heat of dilution was determined from buffer titrations and corrected data were analysed using MicroCal Origin software v7.0. To determine binding thermodynamics a non-linear single binding model was fitted to the normalized integrated binding isotherms.

[2] = target: T2, RhLNBBP (Roseburia hominis, UniProt G2T0U7); experiment: isothermal titration calorimetry; assay type: binding; settings: 10 mM sodium phosphate, pH 6.5, 25 °C
T2 construct: gene RHOM_04095; signal peptide removed, cleavable His6 tag, pETM11, expressed in E. coli

[3] = target: T3, RiLe^a/bBP (Roseburia inulinivorans, UniProt A0ACG1Y794); experiment: surface plasmon resonance, steady state, one-site fit; assay type: binding; settings: 20 mM sodium phosphate, 150 mM NaCl, 0.005% P20, pH 6.5, 25 °C; protein immobilised on CM5 chip
T3 construct: gene LK408_15410; signal peptide removed, cleavable His6 tag, pETM11, expressed in E. coli; amine-coupled to CM5 chip

[4] = target: T4, RiLe^a/bBP (Roseburia inulinivorans, UniProt A0ACG1Y794); parameters: surface plasmon resonance, steady state, one-site fit; settings: binder; read-out: KD (µM) SPR
T4 construct: gene LK408_15410; signal peptide removed, cleavable His6 tag, pETM11, expressed in E. coli; amine-coupled to CM5 chip
T4 sequence (A0ACG1Y794 20-470): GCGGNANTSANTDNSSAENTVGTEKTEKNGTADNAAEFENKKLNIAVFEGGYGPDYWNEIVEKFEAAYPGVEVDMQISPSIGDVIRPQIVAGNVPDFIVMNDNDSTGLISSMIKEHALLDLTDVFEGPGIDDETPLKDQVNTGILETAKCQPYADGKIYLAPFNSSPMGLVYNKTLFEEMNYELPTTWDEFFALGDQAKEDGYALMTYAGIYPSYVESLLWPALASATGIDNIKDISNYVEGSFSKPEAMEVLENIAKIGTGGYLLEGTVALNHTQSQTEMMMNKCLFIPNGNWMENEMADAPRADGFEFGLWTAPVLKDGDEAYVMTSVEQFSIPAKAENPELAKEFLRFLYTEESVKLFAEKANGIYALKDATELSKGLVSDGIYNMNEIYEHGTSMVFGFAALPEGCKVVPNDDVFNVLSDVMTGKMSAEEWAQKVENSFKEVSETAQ
Source text: Both SBPs recognized distinct HMOs and ligands from host-glycans (Fig. 4, Supplementary Tables 2 and 3, Supplementary Fig. 7). […] The loss of the fucosyl unit at the terminal reducing GlcNAc reduced the affinity of RiLe^a/bBP about 5-fold for blood group H antigen triose type I (H triose type I) relative to Le^b tetraose. The specificity of RiLe^a/bBP is highlighted by the lack of affinity for lacto-N-neotetroase (LNnT), blood group A antigen triose (A triose), lactose and 2′-fucosyllactose (2′-FL). […] An equimolar mixture of Le^b, Le^a and H-triose type I oligomers promoted the growth of R. inulinivorans to a similar final OD600 as glucose (Fig. 1b, c and Fig. 4a). The uptake profiles of these ligands reflected the preference of RiLe^a/bBP, consistent with uptake by the associated transporter (Fig. 4). This was also in accord with the utilization of larger fucosylated HMO structures observed during growth on purified HMOs from mother’s milk (Supplementary Fig. 2a–c).

[5] = target: T5, ErLnb136 (Eubacterium ramulus, UniProt U2PDT9); experiment: X-ray crystal structure; assay type: binding; settings: SeMet-labelled protein, 1.4 Å; 25 mM LNB in cryoprotectant; active site
T5 construct: gene HMPREF0373_02965; single chain, domain I AA 7-224 and catalytic domain II AA 242-663; His6 tag, pETM11, E. coli; crystal SeMet-labelled
T5 sequence (U2PDT9 entry or part of it): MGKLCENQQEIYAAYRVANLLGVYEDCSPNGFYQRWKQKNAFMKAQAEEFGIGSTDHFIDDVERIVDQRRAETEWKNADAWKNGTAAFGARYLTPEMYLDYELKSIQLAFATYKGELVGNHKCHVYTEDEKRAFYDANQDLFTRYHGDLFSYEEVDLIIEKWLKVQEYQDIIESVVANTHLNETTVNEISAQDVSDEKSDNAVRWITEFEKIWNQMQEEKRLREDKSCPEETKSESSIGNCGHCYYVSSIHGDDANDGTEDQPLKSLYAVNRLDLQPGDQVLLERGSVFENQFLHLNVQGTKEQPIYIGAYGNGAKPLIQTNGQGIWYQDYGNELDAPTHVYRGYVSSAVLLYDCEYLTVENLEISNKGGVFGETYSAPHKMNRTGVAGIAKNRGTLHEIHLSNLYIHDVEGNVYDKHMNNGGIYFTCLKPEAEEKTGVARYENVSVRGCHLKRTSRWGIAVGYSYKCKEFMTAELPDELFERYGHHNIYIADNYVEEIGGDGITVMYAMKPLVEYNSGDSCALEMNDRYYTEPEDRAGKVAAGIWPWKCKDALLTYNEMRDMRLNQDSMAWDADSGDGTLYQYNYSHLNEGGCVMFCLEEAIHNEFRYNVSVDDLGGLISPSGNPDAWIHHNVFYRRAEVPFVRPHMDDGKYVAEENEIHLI

[6] = target: T6, RiGLnbp112 (Roseburia inulinivorans, UniProt A0ACG1Y7L8); experiment: phosphorolysis, HPAEC-PAD of Gal1P; specific activity only; assay type: biochemical; settings: 50 mM sodium phosphate, 150 mM NaCl, 0.005% Triton X-100, pH 6.5, 37 °C, 2 mM substrate
T6 construct: gene gnpA; cleavable His6 tag, pETM11, E. coli
T6 sequence (A0ACG1Y7L8 entry or part of it): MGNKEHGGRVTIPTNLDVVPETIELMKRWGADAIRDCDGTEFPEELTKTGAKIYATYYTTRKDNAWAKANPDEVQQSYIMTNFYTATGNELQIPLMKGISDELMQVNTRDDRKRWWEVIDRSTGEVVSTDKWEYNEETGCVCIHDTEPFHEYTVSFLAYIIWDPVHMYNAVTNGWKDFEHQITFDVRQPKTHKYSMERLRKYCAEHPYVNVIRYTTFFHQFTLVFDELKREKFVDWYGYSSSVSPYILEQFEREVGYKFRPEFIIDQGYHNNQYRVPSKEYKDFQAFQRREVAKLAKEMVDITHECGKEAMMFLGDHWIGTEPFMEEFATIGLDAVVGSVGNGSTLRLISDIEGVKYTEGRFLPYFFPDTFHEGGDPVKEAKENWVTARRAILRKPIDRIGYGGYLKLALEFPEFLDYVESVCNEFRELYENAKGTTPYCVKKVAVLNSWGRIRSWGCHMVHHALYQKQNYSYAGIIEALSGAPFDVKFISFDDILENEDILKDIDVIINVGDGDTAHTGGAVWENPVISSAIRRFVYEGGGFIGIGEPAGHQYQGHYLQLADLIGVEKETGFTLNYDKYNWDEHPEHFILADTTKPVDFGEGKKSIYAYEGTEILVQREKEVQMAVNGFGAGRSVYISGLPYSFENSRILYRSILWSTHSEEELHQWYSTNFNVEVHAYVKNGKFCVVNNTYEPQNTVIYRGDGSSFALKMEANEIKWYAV

[7] = target: T7, RhGLnbp112 (Roseburia hominis, UniProt G2T0V2); experiment: as above; assay type: biochemical; settings: 50 mM sodium phosphate, 150 mM NaCl, 0.005% Triton X-100, pH 6.5, 37 °C, 2 mM substrate
T7 construct: gene RHOM_04120; cleavable His6 tag, pETM11, E. coli
T7 sequence (G2T0V2 entry or part of it): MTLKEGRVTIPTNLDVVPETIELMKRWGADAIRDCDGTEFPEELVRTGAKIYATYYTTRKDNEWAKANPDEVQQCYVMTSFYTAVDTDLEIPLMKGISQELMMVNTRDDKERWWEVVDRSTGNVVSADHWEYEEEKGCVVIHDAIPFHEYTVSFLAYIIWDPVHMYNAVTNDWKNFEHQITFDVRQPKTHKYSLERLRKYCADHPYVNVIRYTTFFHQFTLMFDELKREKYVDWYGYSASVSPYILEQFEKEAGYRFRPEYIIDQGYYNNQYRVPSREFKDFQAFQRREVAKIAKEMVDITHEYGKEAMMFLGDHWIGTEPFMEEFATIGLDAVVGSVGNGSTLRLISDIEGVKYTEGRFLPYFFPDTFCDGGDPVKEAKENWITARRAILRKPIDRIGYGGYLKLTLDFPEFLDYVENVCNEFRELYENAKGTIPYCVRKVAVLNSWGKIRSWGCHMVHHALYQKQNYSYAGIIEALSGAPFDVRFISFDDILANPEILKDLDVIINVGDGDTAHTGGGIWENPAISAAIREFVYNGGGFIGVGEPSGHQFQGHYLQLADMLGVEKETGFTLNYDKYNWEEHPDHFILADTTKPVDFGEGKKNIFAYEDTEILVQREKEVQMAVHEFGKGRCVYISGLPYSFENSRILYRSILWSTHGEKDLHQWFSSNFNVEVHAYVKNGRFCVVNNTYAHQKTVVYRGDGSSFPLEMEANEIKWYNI

[8] = target: T8, RiFuc29 (Roseburia inulinivorans, UniProt A0ACG1Y7F2); experiment: product profile (TLC and/or MALDI-TOF MS); assay type: biochemical; settings: 50 mM MES, 150 mM NaCl, 0.005% Triton X-100, pH 6.5, 37 °C, 16 h; alpha-(1->4)-L-fucosyl removed
T8 construct: gene LK408_15425; cleavable His6 tag, pETM11, E. coli; no signal peptide; the GH29 of the GH112/GH136 locus, not that of the GH98 locus
T8 sequence (A0ACG1Y7F2 entry or part of it): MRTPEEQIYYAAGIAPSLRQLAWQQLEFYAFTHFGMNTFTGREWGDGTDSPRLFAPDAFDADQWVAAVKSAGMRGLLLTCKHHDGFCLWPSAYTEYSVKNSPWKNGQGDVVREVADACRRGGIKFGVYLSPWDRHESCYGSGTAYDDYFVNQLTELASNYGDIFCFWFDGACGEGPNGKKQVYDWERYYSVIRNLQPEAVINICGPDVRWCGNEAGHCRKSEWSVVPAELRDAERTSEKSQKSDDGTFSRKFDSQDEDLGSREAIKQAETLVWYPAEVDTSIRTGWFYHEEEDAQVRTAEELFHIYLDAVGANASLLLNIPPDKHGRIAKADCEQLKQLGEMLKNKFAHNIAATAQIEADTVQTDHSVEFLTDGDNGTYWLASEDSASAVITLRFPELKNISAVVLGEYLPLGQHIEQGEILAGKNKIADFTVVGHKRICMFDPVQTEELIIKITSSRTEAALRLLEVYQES

[9] = target: T9, ErLnb136II, C-terminal catalytic beta-helix domain of the GH136 lacto-N-biosidase ErLnb136 from Eubacterium … (Eubacterium ramulus DSM 15684, UniProt U2PDT9 242-663, selenomethionine in the SeMet-labelled crystal (PDB 6KQS)); experiment: crystal structure; ErLnb136 (both domains on one chain) with LNB; SeMet-labelled 1.4 Å and native 2.0 Å; sitting-drop vapor diffusion at 20 °C; settings: both partners purified
T9 construct: C-terminal catalytic domain (AA 242-663, beta-helix fold) of ErLnb136, product of HMPREF0373_02965 of Eubacterium ramulus DSM 15684; In the crystal this domain is on ONE natural polypeptide with m3 (whole ErLnb136, cloned in pETM11 with a cleavable N- or C-terminal His6 tag); also called GH136II domain; source: E. coli B834 (DE3), SeMet-labelled, and E. coli BL21 ΔlacZ (DE3)/pRARE2, native
T9 sequence (looked up): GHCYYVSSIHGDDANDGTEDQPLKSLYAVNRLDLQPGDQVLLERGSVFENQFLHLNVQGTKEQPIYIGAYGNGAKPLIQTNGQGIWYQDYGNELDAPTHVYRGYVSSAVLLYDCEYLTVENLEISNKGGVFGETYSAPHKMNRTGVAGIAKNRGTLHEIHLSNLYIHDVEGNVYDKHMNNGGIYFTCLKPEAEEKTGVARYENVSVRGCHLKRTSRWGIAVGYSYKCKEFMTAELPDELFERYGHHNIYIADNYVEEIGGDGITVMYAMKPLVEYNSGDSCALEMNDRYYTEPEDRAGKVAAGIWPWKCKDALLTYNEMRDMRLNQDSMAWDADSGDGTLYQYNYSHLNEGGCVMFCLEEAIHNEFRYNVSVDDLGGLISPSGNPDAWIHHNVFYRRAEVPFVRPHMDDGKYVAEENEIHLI

Molecule: CC(=O)N[C@H]1C(O)O[C@H](CO)[C@@H](O[C@@H]2O[C@@H](C)[C@@H](O)[C@@H](O)[C@@H]2O)[C@@H]1O[C@@H]1O[C@H](CO)[C@H](O)[C@H](O)[C@H]1O[C@@H]1O[C@@H](C)[C@@H](O)[C@@H](O)[C@@H]1O (stereo partly drawn) [Le^b tetraose]
KD [3]: Lewis b (Le^b) tetraose and Lewis a (Le^a) triose were the preferred ligand
Kd [4]: 1.77 µM and 1.75 µM

Molecule: CC(=O)N[C@H]1C(O)O[C@H](CO)[C@@H](O)[C@@H]1O[C@@H]1O[C@H](CO)[C@H](O)[C@H](O)[C@H]1O (stereo partly drawn) [LNB]
Kd [1]: 2.64 µM and 3.12 µM
Kd [4]: 6.63 µM and 6.91 µM
KD [2]: shows preference to LNB followed by GNB and LNT
X-ray crystal structure [5]: The LNB molecule bound in the active site is recognized by ten potential hydrogen bonds
phosphorolysis, HPAEC-PAD of Gal1P; specific activity only [6]: (RiGLnbp112) phosphorolyzes LNB and GNB equally efficiently
phosphorolysis, HPAEC-PAD of Gal1P; specific activity only [7]: This enzyme has comparable specific activities for LNB and GNB

Molecule: CC(=O)N[C@H]1C(O)O[C@H](CO)[C@@H](O[C@@H]2O[C@@H](C)C(O)C(O)[C@@H]2O)[C@@H]1O[C@@H]1O[C@H](CO)[C@H](O)[C@H](O)[C@H]1O (stereo partly drawn) [Le^a triose]
KD [3]: Lewis b (Le^b) tetraose and Lewis a (Le^a) triose were the preferred ligand
product profile (TLC and/or MALDI-TOF MS) [8]: complete defucosylation of putative products of RiGH136, Le^b tetraose, Le^a triose and H triose

Second part, led by results:

Kd [1]: 11 µM and 9.71 µM
Molecule: CC(=O)N[C@H]1[C@H](O[C@H]2[C@@H](O)[C@@H](CO)O[C@@H](O[C@H]3[C@H](O)[C@@H](O)C(O)O[C@@H]3CO)[C@@H]2O)O[C@H](CO)[C@@H](O)[C@@H]1O[C@@H]1O[C@H](CO)[C@H](O)[C@H](O)[C@H]1O (stereo partly drawn) [LNT]
KD [2]: shows preference to LNB followed by GNB and LNT

Kd [1]: 10.9 µM and 11.1 µM
Kd [4]: 10.8 µM and 10.2 µM
Molecule: CC(=O)N[C@H]1C(O)O[C@H](CO)[C@H](O)[C@@H]1O[C@@H]1O[C@H](CO)[C@H](O)[C@H](O)[C@H]1O (stereo partly drawn) [GNB]
KD [2]: shows preference to LNB followed by GNB and LNT
phosphorolysis, HPAEC-PAD of Gal1P; specific activity only [6]: (RiGLnbp112) phosphorolyzes LNB and GNB equally efficiently
phosphorolysis, HPAEC-PAD of Gal1P; specific activity only [7]: This enzyme has comparable specific activities for LNB and GNB

binding result [9]: binds
B1: ErLnb136I, N-terminal domain of the GH136 lacto-N-biosidase ErLnb136 from Eubacterium ramulus (domain or fragment, Eubacterium ramulus DSM 15684, UniProt U2PDT9 7-224, looked up)
chain: NQQEIYAAYRVANLLGVYEDCSPNGFYQRWKQKNAFMKAQAEEFGIGSTDHFIDDVERIVDQRRAETEWKNADAWKNGTAAFGARYLTPEMYLDYELKSIQLAFATYKGELVGNHKCHVYTEDEKRAFYDANQDLFTRYHGDLFSYEEVDLIIEKWLKVQEYQDIIESVVANTHLNETTVNEISAQDVSDEKSDNAVRWITEFEKIWNQMQEEKRLRE
modifications: selenomethionine in the SeMet-labelled crystal (PDB 6KQS)
notes: N-terminal domain (AA 7-224, eight alpha-helices, new fold) of ErLnb136, product of HMPREF0373_02965 of Eubacterium ramulus DSM 15684; residues 180-199 are disordered in the structure; In the crystal this domain is on ONE natural polypeptide with m4 (whole ErLnb136, cloned in pETM11 with a cleavable N- or C-terminal His6 tag); The linker 225-241 is disordered; also called GH136I domain; source: …
